Counter-ions that a name gives are not always drawn.
How the values were obtained:
Assay in all cases: Bacterial Susceptibility Test, zone size
Assay type in all cases: cell-based
E. coli = tested on: E. coli
Experimental: (§1) The combination of amikacin and cefepime on different microorganisms was taken to analyze the efficiency of combination in comparison with the individual components of the drug. Different concentrations were selected mentioned to as highest, high, low and lowest in the data. Zone size was determined in mm.

Klebsiella pneumoniae = tested on: Klebsiella pneumoniae
Experimental: as §1

Streptococcus pneumoniae = tested on: Streptococcus pneumoniae
Experimental: as §1

Enterococcus faecalis = tested on: Enterococcus faecalis
Experimental: as §1

Staphylococcus aureus = tested on: Staphylococcus aureus
Experimental: as §1

Pseudomonas auriginosa = tested on: Pseudomonas auriginosa
Experimental: as §1

| SMILES | Zone (E. coli; concentration High) [mm] | Zone (E. coli; concentration Highest) [mm] | Zone (E. coli; concentration Low) [mm] | Zone (E. coli; concentration Lowest) [mm] | Zone (Klebsiella pneumoniae; concentration High) [mm] | Zone (Klebsiella pneumoniae; concentration Highest) [mm] | Zone (Klebsiella pneumoniae; concentration Low) [mm] | Zone (Klebsiella pneumoniae; concentration Lowest) [mm] | Zone (Streptococcus pneumoniae; concentration High) [mm] | Zone (Streptococcus pneumoniae; concentration Highest) [mm] | Zone (Streptococcus pneumoniae; concentration Low) [mm] | Zone (Streptococcus pneumoniae; concentration Lowest) [mm] | Zone (Enterococcus faecalis; concentration High) [mm] | Zone (Enterococcus faecalis; concentration Highest) [mm] | Zone (Enterococcus faecalis; concentration Low) [mm] | Zone (Enterococcus faecalis; concentration Lowest) [mm] | Zone (Staphylococcus aureus; concentration High) [mm] | Zone (Staphylococcus aureus; concentration Highest) [mm] | Zone (Staphylococcus aureus; concentration Low) [mm] | Zone (Staphylococcus aureus; concentration Lowest) [mm] | other results |
| --- | --- | --- | --- | --- | --- | --- | --- | --- | --- | --- | --- | --- | --- | --- | --- | --- | --- | --- | --- | --- | --- |
| NCC[C@H](O)C(=O)N[C@@H]1C[C@H](N)[C@@H](O[C@H]2O[C@H](CN)[C@@H](O)[C@H](O)[C@H]2O)[C@H](O)[C@H]1O[C@H]1O[C@H](CO)[C@@H](O)[C@H](N)[C@H]1O [Amikacin, D-Streptamine, O-3-amino-3-deoxy-α-d-glucopyranosyl)1→6)-O-[6-amino-6-deoxy-α-D-glucopyranosyl(1→4)]-N^1-(4-amino-2-hydroxy-1-oxobutyl)-2-deoxy-,(S)-,sulfate (1:2)(salt)] | 29.02 | 30.90 | 22.06 | 15.02 | 31.25 | 34.98 | 31.02 | 29.98 | 24.28 | 26.58 | 18.34 | 12.32 | 23.24 | 27.29 | 17.97 | 08.05 | 24.42 | 28.92 | 18.79 | 10.09 | Zone (Pseudomonas auriginosa; concentration High): 21.81 mm; Zone (Pseudomonas auriginosa; concentration Highest): 26.93 mm; Zone (Pseudomonas auriginosa; concentration Low): 16.05 mm; Zone (Pseudomonas auriginosa; concentration Lowest): 09.81 mm |
| CO/N=C(\C(=O)N[C@@H]1C(=O)N2C(C(=O)O)=C(C[N+]3(C)CCCC3)CS[C@H]12)c1csc(N)n1.Cl.O.[Cl-] [Cefepime, 1-[[(6R,7R)-7-[2-(2-amino-4-thiazolyl)-glyoxylamido]-2-carboxy-8-oxo-5-thia-1-azabicyclo[4.2.0]oct-2-en-3-yl]methyl]-1-methyl-pyrrolidinium chloride, 7^2-(Z)-(O-methyloxime), monohydrochloride, monohydrate] | 30.16 | 32.24 | 24.20 | 16.42 | 32.35 | 36.02 | 31.96 | 30.83 | 28.10 | 30.32 | 23.02 | 19.54 | 25.52 | 28.98 | 19.92 | 12.65 | 28.44 | 31.06 | 21.18 | 16.24 | Zone (Pseudomonas auriginosa; concentration High): 27.56 mm; Zone (Pseudomonas auriginosa; concentration Highest): 30.94 mm; Zone (Pseudomonas auriginosa; concentration Low): 18.81 mm; Zone (Pseudomonas auriginosa; concentration Lowest): 12.08 mm |

Source: patent US8178501B2, “Antibiotic combinations for providing total solution to the treatment of infections” (priority 2004, dated 2012)
